*1 amine or outer side, *2 acyl side, *3 side chain or, on linkers, in order; H or OH if unused. Where a SMILES comes first, the peptide text is derived from it. Bridges are numbered along the chain shown (N, C = ends). TBMB = c1c(C[*:1])cc(C[*:3])cc1C[*:2]
System: chymotrypsin
Test: Phage ELISA after DTT reduction and chymotrypsin treatment (resistance to proteolysis)
Assay type: in vitro ADME
Conditions: 5 mM DTT 20 min, chymotrypsin 50 ug/ml 2 min
Experimental: 0.6 μg/mL of biotinylated MDM2 peptide (res 2-125) was immobilized on a streptavidin-coated plate (Roche). Plate was blocked with PBSM (but 4% in milk powder) and linear or TBMB-conjugated phage (10^7 TU/well in PBSM in the presence or absence of 5 mM DTT) was incubated on the plate for 50 min at room temperature. Similarly, phage was first reduced in 5 mM DTT for 20 min, treated with chymotrypsin (50 ug/ml in PBS) for 2 min, mixed with PBSM (final concentration) and incubated on the plate for 50 min at room temperature. Phage was detected using an anti-M13-HRP monoclonal antibody (1:5000, Amersham).
Note that 5 mM DTT can reduce the disulphide bonds of chymotrypsin leading to its inactivation as a protease. […] In other experiments we have used up to 0.2 mM-5 mM TCEP in the presence of chymotrypsin (0.1 mg/ml-1 mg/ml) for 2 minutes at room temperature in PBS. These conditions also allowed us to distinguish between the linear and cyclic peptides on phage.

Compound | resistance of MDM2 binding to proteolysis
CC(C)C[C@@H]1NC(=O)[C@H](CCC(=O)O)NC(=O)[C@@H](NC(=O)[C@@H](N)CO)CSCc2cc3cc(c2)CSC[C@H](NC(=O)[C@H](CCCCN)NC(=O)[C@@H]2CCCN2C(=O)[C@H](CC(N)=O)NC(=O)[C@H](Cc2c[nH]c4ccccc24)NC1=O)C(=O)N[C@@H](CCCNC(=N)N)C(=O)N[C@@H](CC(C)C)C(=O)N[C@@H](CO)C(=O)N1CCC[C@H]1C(=O)N[C@@H](Cc1ccccc1)C(=O)N[C@@H](CCC(=O)O)C(=O)N[C@H](C(=O)N[C@@H](CCCCN)C(=O)NCC(=O)O)CSC3 [PEP10] (H-SCELWNPKCRLSPFECKG-OH; linker 2-9-16 via TBMB (inferred)) | resistant to proteolysis
CC(C)[C@@H]1NC(=O)[C@@H](NC(=O)[C@@H](N)CO)CSCc2cc3cc(c2)CSC[C@H](NC(=O)[C@H]([C@@H](C)O)NC(=O)[C@H](Cc2c[nH]c4ccccc24)NC(=O)CNC(=O)[C@H](Cc2ccccc2)NC(=O)[C@H](CCCNC(=N)N)NC1=O)C(=O)N[C@@H](CC(=O)O)C(=O)N[C@@H](CC(N)=O)C(=O)N[C@@H](CO)C(=O)N[C@@H](Cc1c[nH]c2ccccc12)C(=O)N[C@@H](Cc1c[nH]cn1)C(=O)NCC(=O)N[C@H](C(=O)N[C@@H](CCCCN)C(=O)NCC(=O)O)CSC3 [PEP48] (H-SCVRFGWTCDNSWHGCKG-OH; linker 2-9-16 via TBMB (inferred)) | resistant to proteolysis
